From US9682947B2, “Substituted lactones for treating cancer” (KUNMING INSTITUTE OF BOTANY, CHINESE ACADEMY OF SCIENCES, priority 2013, dated 2017)
“Also recorded” adds a separate entry of the source.

How the values were obtained:
[1] = test system: HT-29 cells; test: Anchorage-independent growth (soft agar) assay; type: cell-based, human; settings: HT-29 (p53 mutant), 16, 32 μM, soft agar 2 weeks
Experimental: (§1) Anchorage-independent growth (soft agar assay) in soft agar was carried out as described in inventors' previous studies (1.25). Briefly, 1×10^4 cells mixed with various concentration of Compound X in 10% FBS BME containing 0.33% soft agar, was seeded over bottom layer of 0.5% agar in 10% FBS BME in each well of 6-well plates. […]
(§2) Anchorage-independent growth (soft agar assay) in soft agar was carried out as described in Example 1.

[2] = test system: DLD-1 cells; test: Anchorage-independent growth (soft agar) assay; type: cell-based, human; settings: DLD-1 (p53 mutant), 16, 32 μM, soft agar 2 weeks
Experimental: as §1, §2

[3] = test system: HCT116 PUMA−/− cells; test: Anchorage-independent growth (soft agar) assay; type: cell-based, human; settings: HCT116 PUMA−/−, 16, 32 μM, soft agar 2 weeks
Experimental: as §1, §2

[4] = test system: HCT116 cells; test: Anchorage-independent growth (soft agar) assay; type: cell-based, human; settings: HCT116, 16 and 32 μM, soft agar 2 weeks
Experimental: as §1, §2

[5] = test system: puma promoter; test: PUMA promoter-driven luciferase reporter assay in HCT116 cells; type: cell-based, human; settings: HCT116, 16 μM
Experimental: (§3) HCT116 cells stably expressing the luciferase reporter constructs were seeded into 96-well plates (5×10^3/well) and subjected to compound treatment when the cultures reached 80˜90% confluence. Cellular lysates were prepared at the indicated time points, and the luciferase activities were determined by a luminometer (Wallac 1420 Victor 2 multilabel counter system) as described in our previous studies (2.24, 2.25). The results are expressed as a relative activity that is normalized to the control cells without treatment.

[6] = test system: HCT116 Bax−/− cells; test: Anchorage-independent growth (soft agar) assay; type: cell-based, human; settings: soft agar 14 days
Experimental: as §1

[7] = test system: HCT116 PUMA−/− cells; test: Flow cytometry assay with propidium iodide staining (apoptosis); type: cell-based; settings: Homo sapiens, HCT-116, 48 h, read-out: inhibition of cell apoptosis in PUMA−/− cells as compared to HCT116 WT
Experimental: (§4) Flow cytometry assay was assessed as previously described in reference (1.26). After the time periods indicated, the Compound X-treated and control cells were harvested and fixed in 75% ethanol. The fixed cells were stained in the buffer containing 0.1% Triton X-100, 0.2 mg/ml RNase A, and 50 μg/ml PI (propidium iodide) at 4° C. for 1 hour and were then examined by flow cytometry utilizing an Epics XL FACS (Beckman Coulter Inc., Miami, Fla.) and EXPO 32 software as described previously (1.26).
(§5) Flow cytometry assay was carried out as described in Example 1.

[8] = test system: Cl41 cells; test: EGF-induced cell transformation assay in soft agar; type: cell-based, mouse; settings: Cl41, 20 ng/ml EGF, dose-dependent
Experimental: Anchorage-independent growth in soft agar was performed as described previously (3.15). Briefly, 2×10^4 cells mixed with various concentration of Compound X and 20 ng/ml EGF in 10% FBS […] (BMEM) containing 0.33% soft agar, was seeded over bottom layer of 0.5% agar in 10% FBS BMEM in each well of 6-well plates. The plates were incubated in 5% CO2 incubator at 37° C. for 3 weeks, and the colonies with more than 16 cells of each were scored and presented as colonies/1×10^4 cells.

[9] = test system: p21 promoter; test: p21 promoter-driven luciferase reporter in Cl41 cells; type: cell-based, mouse; settings: Cl41, 16 μM, time-dependent
[10] = test system: HCT116 p21−/− cells; test: Flow cytometry assay with propidium iodide staining (apoptosis); type: cell-based, human; settings: 32 μM, 48 h
Experimental: as §4

[11] = test system: HCT116 Bax−/− cells; test: as above; type: cell-based, human; settings: 48 h
Experimental: as §4

[12] = test system: HCT116 p53−/− cells; test: as above; type: cell-based, human; settings: 48 h
Experimental: as §4

[13] = test system: AKT; test: Western blot, AKT phosphorylation in HCT116 cells; type: cell-based, human; settings: HCT116, 16 μM
Experimental: (§6) Cellular protein extracts were prepared with cell lysis buffer (10 mM Tris-HCl, pH 7.4, 1% SDS, 1 mM Na3VO4) and resolved by SDS-PAGE. The membranes were probed with the indicated primary antibodies and HRP-conjugated secondary antibody. Signals were detected with the ECL western-blotting system as described in our previous reports (1.27, 1.28).
(§7) See Example 1 for the method.

[14] = test system: p21 and p53; test: Western Blot, p21 and p53 expression in Cl41 cells; type: cell-based, mouse; settings: Cl41, 2 to 32 μM, 24 hours
Experimental: as §6, §7

[15] = test system: Cl41 cells; test: Cell cycle assay (flow cytometry, PI); type: cell-based, mouse; settings: 24 h, control 63.49%
Experimental: Cell cycle assay was assessed as previously described in reference (3.16). After the time periods indicated, the Compound X-treated and control cells were harvested and fixed in 75% ethanol. The fixed cells were stained with propidium iodide (PI) solution at 4° C. for 30 minutes and were then examined by flow cytometry utilizing an Epics XL FACS (Beckman Coulter Inc., Miami, Fla.) and EXPO 32 software as described previously (3.17).
To assess whether the inhibitory effects of Compound F on growth inhibition of Cl41 cells is mediated via alteration in cell cycle regulation, the inventors evaluated the effect of Compound F2 on cell cycle distribution. The Cl41 cells were synchronized by 0.1% FBS medium for 24 h, and then cultured with 1% FBS medium containing 8, 16, 32 μM of Compound F2 for 24 h.

[16] = test system: PUMA; test: Western Blot, PUMA induction in WT and p53−/− HCT116 cells; type: cell-based, human; settings: 16 μM
Experimental: as §6, §7

[17] = test system: p53, p21 and Bax; test: Western Blotting, p53, p21 and Bax expression in HCT116 cells; type: cell-based, human; settings: HCT116 WT, 16 μM
Experimental: as §6

[18] = test system: PHLPP1; test: Western blot, PHLPP1 protein expression in HCT116 cells; type: cell-based, human; settings: HCT116, 16 μM
Experimental: as §6, §7

[19] = test system: caspase-3 and PARP; test: Western Blotting, cleavage of caspase 3 and PARP; type: cell-based, human; settings: 16 μM, colon cancer cells
Experimental: as §6

[20] = test system: HT-29 cells; test: Flow cytometry assay with propidium iodide staining (apoptosis); type: cell-based, human; settings: HT-29, 16 μM or 32 μM, 48 hours
Experimental: as §4, §5

[21] = test system: DLD-1 cells; test: as above; type: cell-based, human; settings: DLD-1, 16 μM or 32 μM, 48 hours
Experimental: as §4, §5

[22] = test system: HCT116 wild-type cells; test: as above; type: cell-based, human; settings: 48 h; for cell apoptosis: HCT116 WT
Experimental: as §4, §5

[23] = test system: p53; test: p53-luciferase reporter (PG13-luc) in Cl41 cells; type: cell-based, mouse; settings: Cl41, 16 μM
[24] = test system: FoxO3a; test: FoxO3a transcription activity dependent luciferase (4×DBE) reporter assay in HCT116 cells; type: cell-based, human; settings: HCT116, 16 μM
Experimental: as §3

[25] = mice; cited from earlier work
[26] = test system: leukemia cell; settings: involving activation of caspase-3 and downregulation of Bcl-2 mRNA; cited from earlier work

CC(=O)O[C@H]1C=CC(=O)O[C@H]1[C@@H](O)[C@H](F)c1ccccc1 [Compound F2]
anchorage-independent growth [1]: inhibit anchorage-independent growth
anchorage-independent growth [2]: inhibit anchorage-independent growth
colony formation, sensitivity vs wild type cells [3]: significantly more resistant
anchorage-independent growth (size and number of colonies) vs vehicle [4]: significantly restrained the size and number of colonies; also recorded: significantly decreased anchorage-independent growth
puma promoter transcription activity [5]: markedly induction of puma promoter transcription activity
colony formation [6]: only partially inhibit colony formation
inhibition at 16 µM [7]: > 90%
EGF-induced cell transformation and colony formation on soft agar [8]: significantly repressed EGF-induced cell transformation and colony formation
p21 promoter transcription activity [9]: obvious induction of p21 promoter transcription activity
cell apoptosis [10]: 80.31%
cell apoptosis ([11]; 16 μM): 1.00%
cell apoptosis ([11]; 32 μM): 0.69%
cell apoptosis ([12]; 16 μM): 7.41%
cell apoptosis ([12]; 32 μM): 14.18%
phosphorylation of AKT at Ser 473 [13]: inhibited after exposure to Compound F2 for 12 h or longer
expression levels of p21 and p53 [14]: increased
proportion of cells in the G0/G1 phase ([15]; 8 μM): 77.74%
proportion of cells in the G0/G1 phase ([15]; 16 μM): 79.79%
proportion of cells in the G0/G1 phase ([15]; 32 μM): 80.13%
PUMA protein induction, time [16]: ≤ 12 h
p53, p21 and Bax protein levels [17]: increasing as time-dependent manner
PHLPP1 protein expression [18]: upregulated
cleaved caspases-3 and PARP [19]: detected in a time-dependent manner from 24 h to 48 h; also recorded: detected in a time-dependent manner from 6 hours to 48 hours
sub-G1 DNA content (apoptotic peak) vs vehicle control [20]: substantial increase in sub-G1 DNA content
sub-G1 DNA content (apoptotic peak) vs vehicle control [21]: substantial increase in sub-G1 DNA content
sub-G1 DNA content (apoptotic peak) vs vehicle control ([22]; HCT116, 16 μM or 32 μM): substantial increase in sub-G1 DNA content
cell apoptosis ([22]; 16 μM): 18.30%
cell apoptosis ([22]; 32 μM): 26.27%
p53 transactivation [23]: significantly induced p53 transactivation
FoxO3a transactivation [24]: significantly induced FoxO3a transactivation

CC(=O)O[C@H]1C=CC(=O)O[C@H]1C1OC1c1ccccc1 (some centres unmarked) [cheliensisin A, Cheliensisin A]
in vivo antitumor effect [25]: potent in vivo antitumor effect
leukemia cell apoptosis [26]: induced leukemia cell apoptosis
